The values below come from patent publication US8673268B2, “Molecular targets and compounds, and methods to identify the same, useful in the treatment of joint degenerative and inflammatory diseases” (Galapagos N.V., priority 2004, dated 2014).

One assay relates to TIMP-2 secretion by SFs. The experiment in a line: TIMP-2 secretion ELISA. The format is cell-based, human. As for the experimental part: The secretion of TIMP-2 by SFs is determined to eliminate the factor of general suppression of SF secretory activity by the Ad-siRNAs as the cause of reduced expression of MMP1 in the reverse MMP1 assay. TIMP-2 is a protein that SFs express and secret constitutively. Secretion of TIMP-2 into the SF supernatant is blocked by the addition of BrefeldinA, a small molecule inhibitor of secretion. The level of SF TIMP-2 protein secretion is detected by ELISA. RASF cells are seeded in 96-well gelatin coated plates at 3000 cells/well in 100 μl synovial growth medium. After overnight incubation, cells are infected and incubated for 5 days at 37° C. in a 10% CO2 incubator. […] TIMP2 levels are determined by a standard ELISA assay, essentially as outlined for the MMP1 ELISA. […] After 5 minutes incubation at room temperature in the dark, luminescence is quantified on a luminometer (Luminoscan Ascent).
The procedure described above (plate layout, MOI, method for determination of the cutoff) applied for these experiments is identical to the one described for the toxicity measurements (i.e., a primary test with 12 μl infection volume and a retest with 3, 6, 12 μl infection volumes) differing only in that the cutoff applied in the primary test is determined as the average over all samples minus 2 times standard deviation over all samples. […]

Assay [1] has as its system MMP1 expression by synovial fibroblasts (SFs). The experiment in a line: reverse MMP1 assay: MMP1 ELISA on supernatant of SFs activated with TNFα-based trigger. Format: cell-based. To be noted: Homo sapiens, Fibroblast, supernatant collected 48 hours after trigger, FIG. 5, read-out: IC50 for reduction of TNF-based trigger-induced MMP1 expression by SFs. As for the experimental part:
A 384-well format ELISA for measurement of MMP1 is developed. Various primary antibodies are tested, as well as various ELISA protocols. The following protocol is developed and validated to measure MMP1 levels in SF supernatant in 384 well plates: white Lumitrac 600 384 well plates (Greiner) are coated with 2 μg/ml anti-MMP1 antibody MAB1346 (Chemicon). The antibody is diluted in buffer 40 (1.21 g Tris base (Sigma), 0.58 g NaCl (Calbiochem) and 5 ml 10% NaN3 (Sigma) in 1 L milliQ water and adjusted to pH 8.5). After overnight incubation at 4° C., plates are washed with PBS (80 g NaCl, 2 g KCl (Sigma), 11.5 g Na2HPO4.7H2O and 2 g KH2PO4 in 10 L milliQ; pH 7.4) and blocked with 100 μl/well Casein buffer (2% Casein (VWR International) in PBS). Next day, casein buffer is removed from ELISA plates and replaced by 50 μl/well EC buffer (4 g casein, 2.13 g Na2HPO4 (Sigma), 2 g bovine albumin (Sigma), 0.69 g NaH2PO4.H2O (Sigma), 0.5 g CHAPS (Roche), 23.3 g NaCl, 4 ml 0.5 M EDTA pH 8 (Invitrogen), 5 ml 10% NaN3 in 1 L milliQ and adjusted to pH 7.0). 0.25 mM DTT (Sigma) are added to the thawed samples plates. After removal of the EC buffer, 20 μl of sample are transferred to the ELISA plates. […] Readout is performed on the Luminoscan Ascent Luminometer (Labsystems) with an integration time of 200 msec or with an Envision reader (Perkin Elmer). […]

For another assay, the system named is rheumatoid arthritis. Particulars: RA patients, after 24 months treatment; cited from earlier work.

As to `C[C@H]1CCC/C=C/[C@@H]2C[C@H](O)C[C@H]2[C@H](O)/C=C/C(=O)O1` [BrefeldinA], the “secretion of TIMP-2 into the SF supernatant” value with TIMP-2 secretion by SFs was “blocked”.

In the case of `C[C@@H]1C[C@H]2[C@@H]3CCC4=CC(=O)C=C[C@]4(C)[C@@]3(F)[C@@H](O)C[C@]2(C)[C@@]1(O)C(=O)CO` [dexamethasone], in assay [1], the IC50 was around 1 nM.

Regarding `CN(Cc1cnc2nc(N)nc(N)c2n1)c1ccc(C(=O)N[C@@H](CCC(=O)O)C(=O)O)cc1` [methotrexate], the “patients achieving an ACR50 score” value in the assay on rheumatoid arthritis is 30%.
